Our source for the TGI and GI50 values is PubChem BioAssay (NCI).

Among the test systems are UACC-62 melanoma; LOX IMVI melanoma; SW-620 colon; SN12C renal; ACHN renal; HOP-62 NSCLC; 786-0 renal; KM12 colon; RPMI-8226 leukemia; PC-3 prostate.
Common to all, as to test: NCI tumour cell line growth inhibition, 48 h

“And” between values parts separate entries of the source, which are not always exact repeats. Identical values can stand only once.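 Tested at 5 concentrations; 48 h exposure; 96-well plates; endpoints linearly interpolated, else capped at highest concentration. At the GI50, growth is halved. TGI is the concentration that stops growth completely.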

In the case of `Cc1c(C(Cc2ccccc2N(C)C(=O)/C=C\C(=O)O)c2c[nH]c3ccccc23)c2ccccc2n1C` (centres undefined), the TGI with UACC-62 melanoma came to 34.1 µM; in the test with LOX IMVI melanoma, 29.2 µM; with SW-620 colon it was 34.5 µM; in the test on SN12C renal it was 30 µM; in the test with ACHN renal, 34.3 µM; in the test with HOP-62 NSCLC, 32.5 µM. Moreover, the TGI in the test on 786-0 renal stood at 35.9 µM; with KM12 colon, 29.1 µM.

On to `N#CC(C(=O)CCCC(=O)Nc1ccccc1[N+](=O)[O-])c1c(Cl)cccc1Cl` (centres undefined), for which the TGI in the test on UACC-62 melanoma, with RPMI-8226 leukemia, with SW-620 colon, in the test on SN12C renal, with ACHN renal and in the test with HOP-62 NSCLC was more than 100 µM throughout. Moreover, the TGI in the test with 786-0 renal and with KM12 colon was more than 100 µM each time.

As for `CC(=O)OC(C)(C)C1CC[C@]2(C)/C=C/C(C)C[C@@H](O)/C=C(\C)CC(O)C12` (some centres undefined), the TGI with UACC-62 melanoma, in the test with RPMI-8226 leukemia, in the test on LOX IMVI melanoma, in the test with SW-620 colon, in the test with SN12C renal and in the test on ACHN renal was more than 100 µM throughout. The TGI with HOP-62 NSCLC, in the test with 786-0 renal and in the test on KM12 colon was more than 100 µM in each case.

Turning to `Cc1cc(N(CCC#N)CCC#N)ccc1/C=C(\NC(=O)/C=C/c1ccccc1)C(=O)N=[N+]=[N-]`, the TGI in the test on UACC-62 melanoma, with RPMI-8226 leukemia, in the test on LOX IMVI melanoma, in the test on SW-620 colon, in the test on SN12C renal and with ACHN renal was more than 100 µM throughout. The TGI in the test with HOP-62 NSCLC and with 786-0 renal was more than 100 µM throughout.

For `CC(=O)N1C/C(=C\c2ccccc2)C(=O)/C(=C/c2ccccc2)C1`, the TGI in the test with UACC-62 melanoma was 34.2 µM; in the test with RPMI-8226 leukemia it was 4.79 µM; in the test with LOX IMVI melanoma, 9.01 µM; in the test with SW-620 colon, 8.37 µM; in the test with SN12C renal, 28.7 µM; in the test on ACHN renal it was 32.4 µM. Further, the TGI in the test on HOP-62 NSCLC was 39 µM; in the test on 786-0 renal, 30.2 µM; in the test with KM12 colon, 12.1 µM.

As to `COc1ccc(C2COc3c(ccc(OC)c3OC)C2=O)cc1OC` (centres undefined), the TGI in the test with UACC-62 melanoma, in the test on RPMI-8226 leukemia, in the test with LOX IMVI melanoma, in the test with SW-620 colon, with SN12C renal and in the test on ACHN renal was more than 100 µM in each case. Also, the TGI with HOP-62 NSCLC, in the test on 786-0 renal and in the test on KM12 colon was more than 100 µM each time.

As to `CC[C@@]1(OP(=O)(O)O)C(=O)OCc2c1cc1n(c2=O)Cc2cc3ccccc3nc2-1`, the GI50 in the test on UACC-62 melanoma is 0.0269 µM; in the test with RPMI-8226 leukemia, 0.187 µM; with SN12C renal it was 0.024 µM; in the test on ACHN renal it was 0.0243 µM; in the test on HOP-62 NSCLC, 0.0131 µM; with 786-0 renal, 0.0367 µM. In addition, the TGI is 0.404 µM and 1.48 µM in the test with UACC-62 melanoma; 2.27 µM and 4.58 µM with RPMI-8226 leukemia; 0.585 µM with LOX IMVI melanoma; 9.44 µM in the test with SW-620 colon; 6.08 µM and 0.619 µM with SN12C renal; 0.853 µM and 0.26 µM with ACHN renal. The TGI with HOP-62 NSCLC is 1.47 µM and 0.248 µM; in the test on KM12 colon it was 3.47 µM.

On to `Cc1ccc(S(=O)c2ccccc2[N+](=O)[O-])cc1` (centres undefined), for which the TGI in the test on UACC-62 melanoma, in the test on RPMI-8226 leukemia, in the test on LOX IMVI melanoma, with SW-620 colon, in the test on SN12C renal and in the test with ACHN renal was more than 100 µM throughout. Moreover, the TGI in the test with HOP-62 NSCLC, in the test with 786-0 renal and with KM12 colon was more than 100 µM each time.

Consider `NC1=C(O)c2cccc3cccc(c23)C1=O`, for which the TGI with UACC-62 melanoma, in the test with RPMI-8226 leukemia, with LOX IMVI melanoma, with SW-620 colon, with SN12C renal and in the test on ACHN renal was more than 100 µM each time. In addition, the TGI in the test on 786-0 renal and in the test with KM12 colon was more than 100 µM in each case.

Regarding `CN(C)CC1CC/C(=C\c2ccc(Cl)c(Cl)c2)C1=O` (centres undefined), the TGI is 31.5 µM in the test with UACC-62 melanoma; 8.92 µM with RPMI-8226 leukemia; 18.4 µM with LOX IMVI melanoma; more than 51.6 µM in the test with SW-620 colon; more than 55.8 µM in the test on SN12C renal; more than 62.5 µM in the test on ACHN renal. For the same compound, the TGI was more than 95.1 µM with HOP-62 NSCLC, 26.7 µM with 786-0 renal and 35.7 µM in the test with KM12 colon.

On to `COc1ccc(C(=O)C(C(=O)CCC(=O)Nc2ccc(Cl)c(Cl)c2)c2ccc(OC)cc2)cc1` (centres undefined), for which the TGI with UACC-62 melanoma, in the test on RPMI-8226 leukemia, in the test on LOX IMVI melanoma, in the test with SW-620 colon, in the test on SN12C renal and with ACHN renal was more than 100 µM throughout. Besides, the TGI in the test with HOP-62 NSCLC, in the test with 786-0 renal and in the test with KM12 colon was more than 100 µM each time.

With `Cc1ccc(N)c(S)c1`, the TGI stood at 32.7 µM in the test on UACC-62 melanoma; 28.6 µM with PC-3 prostate; 30 µM in the test with LOX IMVI melanoma; 38.7 µM with SW-620 colon; 7.83 µM in the test with SN12C renal; 37.9 µM in the test on ACHN renal. Further, the figures for the TGI with HOP-62 NSCLC, in the test with 786-0 renal and in the test with KM12 colon were 44.4 µM, 29.6 µM and 36.7 µM, respectively.

`C=CC1(C)CCC2C(=CCC3C2(C)CC(O)C(O)C3(C)COC2OC(CO)C(O)C(O)C2O)C1` (centres undefined): the TGI in the test with UACC-62 melanoma, with PC-3 prostate, in the test with LOX IMVI melanoma, in the test with SW-620 colon, in the test on SN12C renal and in the test with ACHN renal was more than 100 µM each time. Further, the TGI in the test with 786-0 renal and in the test with KM12 colon was more than 100 µM in each case.

In the case of `Cn1cc(C2NC(=O)c3ccccc3N2)c2ccccc21` (centres undefined), the TGI in the test on PC-3 prostate is 0.408 µM; in the test on LOX IMVI melanoma, more than 89.8 µM; in the test with SW-620 colon it was more than 100 µM; in the test with SN12C renal, more than 100 µM; in the test on ACHN renal, more than 92.8 µM; in the test with HOP-62 NSCLC it was more than 100 µM. The TGI with 786-0 renal is more than 100 µM; in the test on KM12 colon, 26.9 µM.

As to `C/C(CN1C(=O)c2ccccc2C1=O)=N\NS(=O)(=O)c1ccc2ccccc2c1`, the TGI in the test on UACC-62 melanoma, in the test on RPMI-8226 leukemia, in the test with LOX IMVI melanoma, with SW-620 colon, in the test with SN12C renal and in the test on ACHN renal was more than 100 µM throughout. Further, the TGI in the test with HOP-62 NSCLC, in the test with 786-0 renal and in the test on KM12 colon was more than 100 µM throughout.
